Source: PMC12136037, “Type II kinase inhibitors that target Parkinson’s disease–associated LRRK2” (Science Advances, 2025)

Tests used:
Assay in all cases: DSF 100 kinase selectivity screen;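 note: compound tested at 20 µM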
Format in all cases: binding
[1] = molecular target: T1, ~100 representative kinases (Homo sapiens, UniProt P21675); conditions: Protein TAF1; DSF; average of three replicates
T1 construct: Recombinant protein kinase domains with a concentration of 2 μM
In short: (§1)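 Each kinase domain, at 2 μM, is mixed with 20 μM test compound and SYPRO Orange in Hepes (20 mM, pH 7.5) with 500 mM NaCl. Temperature is then raised at 3°C/min and fluorescence-monitored unfolding yields the melting temperature change, ΔTm in degrees Celsius.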

[2] = molecular target: T2, ~100 representative kinases (Homo sapiens, UniProt P24941); conditions: Protein CDK2; average of three replicates
T2 construct: Recombinant protein kinase domains with a concentration of 2 μM
In short: as §1

[3] = molecular target: T3, ~100 representative kinases (Homo sapiens, UniProt P27448); conditions: protein MARK3; average of three replicates
T3 construct: Recombinant protein kinase domains with a concentration of 2 μM
In short: as §1

[4] = molecular target: T4, ~100 representative kinases (Homo sapiens, UniProt P49841); conditions: protein GSK3B; average of three replicates
T4 construct: Recombinant protein kinase domains with a concentration of 2 μM
In short: as §1

[5] = molecular target: T5, ~100 representative kinases (Homo sapiens, UniProt P53779); conditions: protein MAPK10; average of three replicates
T5 construct: Recombinant protein kinase domains with a concentration of 2 μM
In short: as §1

[6] = molecular target: T6, ~100 representative kinases (Homo sapiens, UniProt Q13153); conditions: protein PAK1; average of three replicates
T6 construct: Recombinant protein kinase domains with a concentration of 2 μM
In short: as §1

[7] = molecular target: T7, ~100 representative kinases (Homo sapiens, UniProt Q92630); conditions: Protein DYRK2; average of three replicates
T7 construct: Recombinant protein kinase domains with a concentration of 2 μM
T7 sequence (Q92630 1-601): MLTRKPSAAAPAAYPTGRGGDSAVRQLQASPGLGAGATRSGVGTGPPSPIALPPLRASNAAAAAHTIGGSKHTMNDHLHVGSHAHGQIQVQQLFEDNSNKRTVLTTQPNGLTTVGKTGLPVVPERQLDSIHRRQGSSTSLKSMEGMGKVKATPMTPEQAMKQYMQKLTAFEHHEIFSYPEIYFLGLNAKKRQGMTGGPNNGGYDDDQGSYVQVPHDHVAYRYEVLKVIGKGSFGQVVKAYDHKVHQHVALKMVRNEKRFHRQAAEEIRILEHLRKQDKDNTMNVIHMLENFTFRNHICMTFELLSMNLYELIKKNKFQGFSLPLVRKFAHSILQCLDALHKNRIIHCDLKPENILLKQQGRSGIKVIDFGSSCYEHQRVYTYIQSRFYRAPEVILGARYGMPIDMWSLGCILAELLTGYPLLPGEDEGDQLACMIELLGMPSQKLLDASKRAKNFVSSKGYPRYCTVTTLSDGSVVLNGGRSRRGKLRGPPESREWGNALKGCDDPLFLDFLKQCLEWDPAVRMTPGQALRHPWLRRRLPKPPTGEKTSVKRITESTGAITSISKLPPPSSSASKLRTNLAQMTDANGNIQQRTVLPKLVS
In short: as §1

[8] = molecular target: T8, ~100 representative kinases (Homo sapiens, UniProt Q99986); conditions: Protein VRK1; DSF; average of three replicates
T8 construct: Recombinant protein kinase domains with a concentration of 2 μM
T8 sequence (Q99986 1-396): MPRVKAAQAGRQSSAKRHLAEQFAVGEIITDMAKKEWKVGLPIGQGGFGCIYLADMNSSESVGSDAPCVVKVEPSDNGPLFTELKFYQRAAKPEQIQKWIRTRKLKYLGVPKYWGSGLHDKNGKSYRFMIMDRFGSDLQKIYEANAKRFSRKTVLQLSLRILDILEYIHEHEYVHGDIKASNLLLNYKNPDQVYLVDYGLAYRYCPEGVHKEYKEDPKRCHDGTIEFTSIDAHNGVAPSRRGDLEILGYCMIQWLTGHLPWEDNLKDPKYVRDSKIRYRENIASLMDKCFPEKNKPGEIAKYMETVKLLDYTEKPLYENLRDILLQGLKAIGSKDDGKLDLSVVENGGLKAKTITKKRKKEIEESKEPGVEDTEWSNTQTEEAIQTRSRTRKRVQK
In short: as §1

[9] = molecular target: T9, ~100 representative kinases (Homo sapiens, UniProt Q9UEW8); conditions: Protein STK39; DSF; average of three replicates
T9 construct: Recombinant protein kinase domains with a concentration of 2 μM
In short: as §1

[10] = molecular target: T10, ~100 representative kinases (Homo sapiens, UniProt Q9Y243); conditions: Protein AKT3; average of three replicates
T10 construct: Recombinant protein kinase domains with a concentration of 2 μM
In short: as §1

[11] = molecular target: T11, ~100 representative kinases (Homo sapiens, UniProt Q9Y6E0); conditions: protein MST3; average of three replicates
T11 construct: Recombinant protein kinase domains with a concentration of 2 μM
In short: as §1

T10 sequence (Q9Y243 whole entry, the tested form may be a part): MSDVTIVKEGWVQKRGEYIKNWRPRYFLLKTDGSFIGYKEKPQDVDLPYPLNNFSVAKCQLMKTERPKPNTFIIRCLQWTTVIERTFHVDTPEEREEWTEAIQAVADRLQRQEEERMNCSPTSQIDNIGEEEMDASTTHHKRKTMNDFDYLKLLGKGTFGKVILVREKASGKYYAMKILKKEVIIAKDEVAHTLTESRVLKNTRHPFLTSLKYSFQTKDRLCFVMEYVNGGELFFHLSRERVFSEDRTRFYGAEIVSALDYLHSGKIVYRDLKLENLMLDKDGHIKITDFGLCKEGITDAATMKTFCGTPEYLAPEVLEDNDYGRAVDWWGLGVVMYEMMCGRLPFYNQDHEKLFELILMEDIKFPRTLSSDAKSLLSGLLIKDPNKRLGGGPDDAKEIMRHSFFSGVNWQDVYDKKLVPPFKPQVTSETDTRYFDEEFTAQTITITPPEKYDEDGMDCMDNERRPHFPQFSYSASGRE
T6 sequence (Q13153 whole entry, the tested form may be a part): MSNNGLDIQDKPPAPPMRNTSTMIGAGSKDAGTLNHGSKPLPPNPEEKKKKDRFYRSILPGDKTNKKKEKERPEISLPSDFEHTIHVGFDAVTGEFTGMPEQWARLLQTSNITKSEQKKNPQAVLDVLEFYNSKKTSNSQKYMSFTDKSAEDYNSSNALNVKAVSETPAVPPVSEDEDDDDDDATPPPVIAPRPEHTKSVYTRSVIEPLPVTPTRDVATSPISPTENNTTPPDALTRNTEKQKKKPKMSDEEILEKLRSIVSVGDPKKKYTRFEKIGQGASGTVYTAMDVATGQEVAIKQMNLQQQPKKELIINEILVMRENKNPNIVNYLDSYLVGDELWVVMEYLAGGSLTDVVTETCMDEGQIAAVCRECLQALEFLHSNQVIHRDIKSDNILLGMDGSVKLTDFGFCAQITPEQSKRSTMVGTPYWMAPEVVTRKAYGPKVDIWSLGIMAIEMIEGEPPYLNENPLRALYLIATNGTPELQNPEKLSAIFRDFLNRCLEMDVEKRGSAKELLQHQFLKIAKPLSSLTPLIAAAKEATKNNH
T5 sequence (P53779 whole entry, the tested form may be a part): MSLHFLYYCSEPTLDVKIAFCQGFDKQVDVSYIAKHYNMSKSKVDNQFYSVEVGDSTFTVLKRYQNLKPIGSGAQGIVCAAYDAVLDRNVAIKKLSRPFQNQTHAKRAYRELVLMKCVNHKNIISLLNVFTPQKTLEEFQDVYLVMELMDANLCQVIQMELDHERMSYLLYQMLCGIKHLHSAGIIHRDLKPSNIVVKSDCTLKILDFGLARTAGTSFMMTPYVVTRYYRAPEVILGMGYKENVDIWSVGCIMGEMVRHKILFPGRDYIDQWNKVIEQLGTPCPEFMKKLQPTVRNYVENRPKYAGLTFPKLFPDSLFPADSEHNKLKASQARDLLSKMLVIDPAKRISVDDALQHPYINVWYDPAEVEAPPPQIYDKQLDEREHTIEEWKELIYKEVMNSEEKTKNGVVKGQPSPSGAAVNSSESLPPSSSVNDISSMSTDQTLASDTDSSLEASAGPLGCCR
T1 sequence (P21675 whole entry, the tested form may be a part): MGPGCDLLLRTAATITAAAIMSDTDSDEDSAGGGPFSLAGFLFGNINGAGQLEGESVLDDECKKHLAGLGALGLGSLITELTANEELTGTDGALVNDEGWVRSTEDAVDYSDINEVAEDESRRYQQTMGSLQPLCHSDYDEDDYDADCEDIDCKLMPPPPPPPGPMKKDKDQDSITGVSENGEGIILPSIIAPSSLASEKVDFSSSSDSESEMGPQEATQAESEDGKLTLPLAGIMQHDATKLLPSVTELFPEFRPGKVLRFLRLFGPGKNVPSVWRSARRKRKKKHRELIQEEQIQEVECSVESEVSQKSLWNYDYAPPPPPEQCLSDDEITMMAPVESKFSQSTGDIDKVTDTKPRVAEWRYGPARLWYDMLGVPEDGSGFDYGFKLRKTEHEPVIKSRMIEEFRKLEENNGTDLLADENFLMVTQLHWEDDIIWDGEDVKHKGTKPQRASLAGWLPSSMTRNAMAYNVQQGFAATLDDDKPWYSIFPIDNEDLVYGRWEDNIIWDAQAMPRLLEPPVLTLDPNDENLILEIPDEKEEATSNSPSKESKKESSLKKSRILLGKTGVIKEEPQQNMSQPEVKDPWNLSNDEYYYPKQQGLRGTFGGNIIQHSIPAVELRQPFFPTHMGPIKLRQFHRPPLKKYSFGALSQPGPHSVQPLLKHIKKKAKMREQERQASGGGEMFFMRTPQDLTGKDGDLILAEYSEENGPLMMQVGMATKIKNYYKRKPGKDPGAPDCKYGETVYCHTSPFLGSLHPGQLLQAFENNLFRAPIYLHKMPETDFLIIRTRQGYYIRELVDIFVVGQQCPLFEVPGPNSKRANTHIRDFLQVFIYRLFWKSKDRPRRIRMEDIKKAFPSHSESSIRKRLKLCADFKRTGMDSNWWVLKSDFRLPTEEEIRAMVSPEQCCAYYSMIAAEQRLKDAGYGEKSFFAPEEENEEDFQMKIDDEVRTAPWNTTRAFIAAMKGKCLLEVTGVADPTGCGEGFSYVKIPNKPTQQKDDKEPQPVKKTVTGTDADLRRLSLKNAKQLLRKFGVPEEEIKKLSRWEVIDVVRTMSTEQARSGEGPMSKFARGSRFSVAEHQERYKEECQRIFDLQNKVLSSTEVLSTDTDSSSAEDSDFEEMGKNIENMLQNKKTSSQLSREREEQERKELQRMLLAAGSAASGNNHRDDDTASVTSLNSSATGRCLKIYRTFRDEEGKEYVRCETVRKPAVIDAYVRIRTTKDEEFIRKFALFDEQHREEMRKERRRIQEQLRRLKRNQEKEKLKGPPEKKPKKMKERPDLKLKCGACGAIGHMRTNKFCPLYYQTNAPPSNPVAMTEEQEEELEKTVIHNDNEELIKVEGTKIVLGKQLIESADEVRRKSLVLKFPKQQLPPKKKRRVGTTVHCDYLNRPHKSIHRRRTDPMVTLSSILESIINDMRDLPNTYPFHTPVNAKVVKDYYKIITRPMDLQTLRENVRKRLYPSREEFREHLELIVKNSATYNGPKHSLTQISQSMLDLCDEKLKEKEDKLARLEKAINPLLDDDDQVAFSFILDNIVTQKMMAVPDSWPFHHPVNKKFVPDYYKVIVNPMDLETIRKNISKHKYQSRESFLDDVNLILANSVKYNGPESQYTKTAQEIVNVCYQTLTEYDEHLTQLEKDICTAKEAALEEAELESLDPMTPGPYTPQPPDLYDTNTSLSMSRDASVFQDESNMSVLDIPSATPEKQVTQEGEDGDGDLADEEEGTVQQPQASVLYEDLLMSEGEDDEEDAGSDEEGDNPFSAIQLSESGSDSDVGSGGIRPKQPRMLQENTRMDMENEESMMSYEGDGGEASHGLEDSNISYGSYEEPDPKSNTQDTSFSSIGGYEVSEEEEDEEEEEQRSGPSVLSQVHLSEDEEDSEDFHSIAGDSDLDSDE
T4 sequence (P49841 whole entry, the tested form may be a part): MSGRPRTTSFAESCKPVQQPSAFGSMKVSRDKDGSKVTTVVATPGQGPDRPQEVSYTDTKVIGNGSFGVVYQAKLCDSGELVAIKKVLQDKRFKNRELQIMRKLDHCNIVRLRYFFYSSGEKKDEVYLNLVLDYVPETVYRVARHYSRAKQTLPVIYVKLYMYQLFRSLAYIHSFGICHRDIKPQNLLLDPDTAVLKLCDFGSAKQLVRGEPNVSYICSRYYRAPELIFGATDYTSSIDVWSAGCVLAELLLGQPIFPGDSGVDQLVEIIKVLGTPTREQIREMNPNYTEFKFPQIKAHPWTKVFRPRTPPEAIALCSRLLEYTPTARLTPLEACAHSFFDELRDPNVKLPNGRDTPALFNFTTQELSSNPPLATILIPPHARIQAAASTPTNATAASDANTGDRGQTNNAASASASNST
T3 sequence (P27448 whole entry, the tested form may be a part): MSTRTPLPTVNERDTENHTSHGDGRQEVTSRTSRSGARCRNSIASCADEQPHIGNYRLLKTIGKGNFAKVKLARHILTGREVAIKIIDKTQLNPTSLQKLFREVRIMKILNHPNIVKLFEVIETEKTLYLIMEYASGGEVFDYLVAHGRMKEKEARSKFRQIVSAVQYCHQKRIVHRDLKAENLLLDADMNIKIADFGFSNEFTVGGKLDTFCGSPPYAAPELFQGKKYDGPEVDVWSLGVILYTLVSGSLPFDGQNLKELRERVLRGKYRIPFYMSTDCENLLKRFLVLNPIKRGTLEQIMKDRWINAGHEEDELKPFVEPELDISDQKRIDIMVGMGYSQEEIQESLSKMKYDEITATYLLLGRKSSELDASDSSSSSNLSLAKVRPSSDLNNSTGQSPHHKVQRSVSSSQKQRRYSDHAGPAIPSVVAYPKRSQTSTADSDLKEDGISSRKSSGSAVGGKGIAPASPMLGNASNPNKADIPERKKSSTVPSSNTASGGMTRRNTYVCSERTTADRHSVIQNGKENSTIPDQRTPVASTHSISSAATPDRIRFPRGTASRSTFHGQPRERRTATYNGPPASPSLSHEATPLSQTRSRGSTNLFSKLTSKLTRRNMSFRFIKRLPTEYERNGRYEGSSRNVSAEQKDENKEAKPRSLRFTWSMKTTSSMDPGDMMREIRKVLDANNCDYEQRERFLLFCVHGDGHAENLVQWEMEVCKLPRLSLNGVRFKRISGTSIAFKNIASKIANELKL
T11 sequence (Q9Y6E0 whole entry, the tested form may be a part): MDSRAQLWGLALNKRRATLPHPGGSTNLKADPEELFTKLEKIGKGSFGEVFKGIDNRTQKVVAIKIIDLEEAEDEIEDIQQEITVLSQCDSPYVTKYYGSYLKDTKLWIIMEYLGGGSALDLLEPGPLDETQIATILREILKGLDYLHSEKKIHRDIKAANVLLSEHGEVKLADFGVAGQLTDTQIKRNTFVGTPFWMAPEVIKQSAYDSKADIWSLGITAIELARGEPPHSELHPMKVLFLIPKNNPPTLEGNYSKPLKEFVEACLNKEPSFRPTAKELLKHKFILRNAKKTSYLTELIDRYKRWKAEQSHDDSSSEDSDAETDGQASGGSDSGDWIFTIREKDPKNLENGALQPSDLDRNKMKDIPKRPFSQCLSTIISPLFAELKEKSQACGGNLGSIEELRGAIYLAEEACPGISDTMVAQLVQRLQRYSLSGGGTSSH

Row | SMILES | dTm [1] [K] | dTm [2] [K] | dTm [3] [K] | dTm [4] [K] | dTm [5] [K] | dTm [6] [K] | dTm [7] [K] | dTm [8] [K] | dTm [9] [K] | dTm [10] [K] | dTm [11] [K]
1 | Cc1ccc(C(=O)Nc2ccc(CN3CCN(C)CC3)c(C(F)(F)F)c2)cc1C#Cc1cnc2[nH]ncc2c1 [GZD-824, reference compound] | -0.68 | 4.99 | 3.47 | 4.71 | 2.46 | 4.19 | 4.99 | 0.0366 | 4.29 | -0.88 | 10.01
2 | C[C@@H]1CN(c2cc(-c3n[nH]c4ccc(OC5(C)CC5)cc34)ncn2)C[C@H](C)O1 [MLi2] | -0.34 | -0.0213 | -1.07 | 0.56 | 0.0276 | -0.13 | 1.21 | 0.11 | 0.27 | -0.44 | 0.43
3 | Cn1cc(-c2c[nH]c3ncnc(N4CCOCC4)c23)cc1C#N [PFE-360] | -0.43 | 0.68 | 2.70 | 5.50 | -1.02 | -0.19 | 1.08 | 0.0159 | -0.25 | -0.26 | 2.72
